Assay type in all cases: biochemical
The target of assay [1] is T1, thrombin (Homo sapiens, UniProt P00734).
T1 construct: purchased Sankyo (Color Test ATIII kit)
In words: Thrombin-inhibiting activity, synthetic substrate PS-915. The settings on record: Table 4; PS-915, pH 8.5, 37° C. The text has this:
(§1) Synthetic substrates used for testing the inhibitory activity of the inhibitors on decomposition of substrates by the enzymes were as follows. For plasmin, PS-994 (H--D--Lys(Tos)--Phe--Lys--CHA·2HCl, mfd. by NITTO BOSEKI Co., Ltd.) was used; for thrombin and trypsin, PS-915 (H--D--Phe--Pro--Arg--CHA·2HCl, mfd. by NITTO BOSEKI Co., Ltd.); for Factor Xa, PS-2000 (Z--D--Lys--(HCO)--Gly--Arg--CHA·HCl, mfd. by NITTO BOSEKI Co., Ltd.); and for kallikrein, S-2302 (H--D--Pro--Phe--Arg--pNA, mfd., by Kabi Co., Ltd.).
(§2) As plasmin, standard plasmin of Sankyo Color Test α2 -D1 Kit was used in an amount of 0.3CU/ml. As thrombin, that of Sankyo Color Test ATIII kit was used in an amount of 1.2 NIHU/ml. As trypsin, that of cord 3703 of Worthington was used in an amount of 2 μg/ml. As human Factor Xa, that of Boehringer Manheim Co., Ltd. was used in an amount of 0.25 U/ml. As human plasma kallikrein, that of Kabi Co., Ltd. was used in an amount of 0.12 U/ml. As terminating color reagents, those for Sankyo Color Test Kit were used. The reactions were carried out at 37° C. unless otherwise specified.
Each of aqueous solutions (0.1 ml) of the inhibitors which solutions were various in their respective concentrations was added to 0.4 ml of a buffer solution (a 150 mM aqueous sodium chloride solution containing 150 mM Tris, pH 8.5), and the resulting solution was heated for 5 minutes. To this solution was added 0.2 ml of thrombin solution, followed by incubation for 5 minutes. Then, 0.1 ml of a PS-915 solution (10 mM) was added, followed by incubation for 5 minutes. Thereafter, 2 ml of terminating color reagent was added. After standing for 10 minutes, absorbance at 700 nm was measured, and IC50 was determined in the manner described above.

Assay [2] deals with T2, trypsin (Bos taurus, UniProt P00760).
T2 construct: purchased Worthington 3703
T2 sequence (P00760 24-246): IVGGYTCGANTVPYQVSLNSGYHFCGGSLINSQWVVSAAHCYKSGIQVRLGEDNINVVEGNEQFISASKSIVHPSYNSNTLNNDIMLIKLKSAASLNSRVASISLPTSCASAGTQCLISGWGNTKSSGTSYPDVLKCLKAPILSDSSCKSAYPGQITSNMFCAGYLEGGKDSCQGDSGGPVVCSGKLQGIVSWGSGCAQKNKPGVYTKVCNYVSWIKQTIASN
The assay can be described thus: Trypsin-inhibiting activity, synthetic substrate PS-915. The settings on record: Table 4; PS-915, pH 8.0, 37° C.
Text: as §1, §2
Each of aqueous solutions (0.1 ml) of the inhibitors which solutions were various in their respective concentrations was added to 0.5 ml of a buffer solution (a 150 mM aqueous sodium chloride solution containing 150 mM Tris, pH 8.0), and the resulting solution was heated for 5 minutes. Then, 0.1 ml of a trypsin solution was added, followed by incubation for 5 minutes. Subsequently, 0.1 ml of a PS-915 solution (10 mM) was added, followed by incubation for 5 minutes. Thereafter, 2 ml of terminating color reagent [containing […] of soybean trypsin inhibitor (No. T-9003, available from Sigma Chemical Co.)] was added. After standing for 10 minutes, absorbance at 700 nm was measured and IC50 was determined in the manner described above.

Assay [3] concerns the target T3, human plasma kallikrein (Homo sapiens, UniProt P03952).
T3 construct: purchased Kabi Co., Ltd
In words: Kallikrein-inhibiting activity, synthetic substrate S-2302. Particulars: Table 4; S-2302, pH 8.0, 37° C.
Text: as §1, §2
Each of aqueous solutions (0.1 ml) of the inhibitors which solutions were various in their respective concentrations was added to 0.4 ml of a buffer solution (a 150 mM aqueous sodium chloride solution containing 50 mM Tris, pH 8.0), and the resulting mixture was heated for 5 minutes. Then, 0.1 ml of a kallikrein solution [containing 0.5% bovine serum albumin (No. A8022 available from Sigma Chemical Co.)] was added, followed by incubation for 5 minutes. Subsequently, a 10 mM S-2302 aqueous solution (0.1 ml) was added. The reaction was terminated by addition of a 20% aqueous acetic acid solution. Absorbance at 405 nm was measured and IC50 was measured in the manner described above.

Assay [4] has as its target T4, plasmin (Homo sapiens, UniProt P00747). The assay can be described thus: Plasmin-inhibiting activity, synthetic substrate PS-994. On the set-up: purchased Sankyo (Color Test α2 -D1 Kit). The settings on record: Table 4; PS-994, pH 7.8, 37° C.
Text: as §1, §2
Each of aqueous solutions (0.1 ml) of the inhibitors which solutions were various in their respective concentrations was added to 0.4 ml of a buffer solution (a 150 mM aqueous sodium chloride solution containing 100 mM Tris, pH 7.8), and the resulting solution was heated for 5 minutes. To this solution was added 0.2 ml of plasmin solution, followed by incubation for 5 minutes, and then 0.1 ml of a PS-994 solution (10 mM) was added, and then incubated for 5 minutes. After completion of the reaction, 2.0 ml of terminating color reagent was added, and after standing for 10 minutes, absorbance at 700 nm was measured. A concentration of the inhibitor in the reaction system at which the absorbance was one-half that obtained in the absence of the inhibitor was determined as IC50.
Target sequence in this assay (P00747 581-810 limits assumed, species assumed): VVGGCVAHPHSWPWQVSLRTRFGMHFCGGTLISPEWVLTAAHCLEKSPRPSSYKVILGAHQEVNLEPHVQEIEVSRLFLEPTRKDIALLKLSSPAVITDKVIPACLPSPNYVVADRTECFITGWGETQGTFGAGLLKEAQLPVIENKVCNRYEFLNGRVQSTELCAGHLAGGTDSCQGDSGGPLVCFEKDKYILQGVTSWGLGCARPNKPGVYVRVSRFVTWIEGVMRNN
Target sequence in this assay (P00747 97-580 partner limits assumed, species assumed): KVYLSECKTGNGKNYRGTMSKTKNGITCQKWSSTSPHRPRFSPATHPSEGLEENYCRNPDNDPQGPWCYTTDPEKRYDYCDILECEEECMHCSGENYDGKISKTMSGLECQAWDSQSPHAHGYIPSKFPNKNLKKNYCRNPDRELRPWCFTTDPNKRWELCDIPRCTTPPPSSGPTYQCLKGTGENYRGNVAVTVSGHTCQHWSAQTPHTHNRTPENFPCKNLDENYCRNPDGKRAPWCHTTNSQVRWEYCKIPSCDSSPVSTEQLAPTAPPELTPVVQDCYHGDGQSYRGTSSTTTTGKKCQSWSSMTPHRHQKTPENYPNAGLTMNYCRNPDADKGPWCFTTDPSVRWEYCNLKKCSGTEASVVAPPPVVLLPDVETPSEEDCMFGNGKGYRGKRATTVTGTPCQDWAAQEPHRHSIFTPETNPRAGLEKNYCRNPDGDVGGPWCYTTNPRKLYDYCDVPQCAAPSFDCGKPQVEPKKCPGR

In assay [5] the target is T4, plasmin. In words: Inhibitory activity on fibrin decomposition by plasmin (natural substrate). On the set-up: Standard human serum (0.1 ml); from tissue. Particulars: Table 4; concentration doubling time for complete dissolution, 25° C. Here is the method:
The determination was carried out by the method of Okamoto et al. (see Keio Journal of Medicine, vol. 11, p. 105 (1962).
Standard human serum (0.1 ml), 0.4 ml of each of 1/20 M potassium phosphate sodium physiological salt buffer solutions (pH 7.4) containing various concentrations of each inhibitor, and 0.1 ml of a solution of streptokinase in physiological saline (1000 U/ml) were stirred and then cooled at 0° C. for 10 minutes. Thereto was added 0.05 ml of a solution of thrombin in physiological saline (100 NIHU/ml, mfd. by Parke Davis Co. Ltd.) at 0° C. After standing for 1 minute, 0.3 ml of a 0.33% solution of bovine fibrinogen (F-4753, available from Sigma Chemical Co.) in physiological saline was added, and the resulting mixture was allowed to stand at 25° C. The solubility was measured every minute by the standard of judgement of Nakamura (see Allergy, vol. 5, p. 1 (1956)) and the time required for complete dissolution was determined. A concentration of the inhibitor at which said time is twice that required in the absence of the inhibitor was determined as IC50.
Target sequence in this assay (P00747 581-810 limits assumed): as the sequence (P00747 581-810 limits assumed, species assumed) above
Target sequence in this assay (P00747 97-580 partner limits assumed): as the sequence (P00747 97-580 partner limits assumed, species assumed) above

The structures appear in SMILES notation. pIC50: −log10 of the molar value. Structures can show the parent of a compound that is named as a salt. Where a SMILES comes first, the peptide text is derived from it. [ ]: non-standard residue; d: D form. The star is where a group is joined. Tos = Cc1ccc(S(=O)(=O)*)cc1; Moc = COC(=O)*; For = O=C* Some results are limits rather than exact numbers.

By pIC50 is commonly meant the IC50 on a negative log10 scale, so that one unit is a factor of ten. Low values mean a high IC50, high ones a low IC50.

T3 sequence (P03952 391-638 limits assumed): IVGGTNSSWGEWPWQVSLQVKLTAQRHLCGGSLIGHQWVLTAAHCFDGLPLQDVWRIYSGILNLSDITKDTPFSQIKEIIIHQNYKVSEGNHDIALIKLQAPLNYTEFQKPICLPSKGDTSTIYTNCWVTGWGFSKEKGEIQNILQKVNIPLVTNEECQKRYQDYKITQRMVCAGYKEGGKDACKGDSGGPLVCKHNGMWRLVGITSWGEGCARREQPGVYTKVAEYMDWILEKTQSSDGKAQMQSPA
T3 sequence (P03952 20-390 partner limits assumed): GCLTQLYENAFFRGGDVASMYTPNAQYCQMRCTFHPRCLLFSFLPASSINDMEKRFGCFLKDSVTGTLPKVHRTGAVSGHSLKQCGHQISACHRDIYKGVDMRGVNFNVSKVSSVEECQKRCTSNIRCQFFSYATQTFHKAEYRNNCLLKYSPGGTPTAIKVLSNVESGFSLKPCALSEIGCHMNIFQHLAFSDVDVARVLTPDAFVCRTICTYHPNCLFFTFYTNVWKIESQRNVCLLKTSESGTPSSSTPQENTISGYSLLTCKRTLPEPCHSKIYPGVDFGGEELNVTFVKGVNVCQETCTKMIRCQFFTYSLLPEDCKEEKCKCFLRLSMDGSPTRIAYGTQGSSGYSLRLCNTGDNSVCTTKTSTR

Consider `COC(=O)N[C@H](CCCCNS(=O)(=O)c1ccc(C)cc1)C(=O)N[C@@H](Cc1ccccc1)C(=O)N[C@H](C=O)CCCCN` [Compound 2, N-α-Methoxycarbonyl-N-ε-(p-tosyl)-D-lysyl-L-phenylalanyl-L-lysinal hydrochloride] (Moc-[dK](Tos)-Phe-Lys-aldehyde), for which the pIC50 in assay [1] is less than 3.00; in assay [2] it was 5.60; in assay [3], 6.44; in assay [4] it was 8.10; in assay [5] it was 6.64.
The like results for `Cc1ccc(S(=O)(=O)NCCCC[C@@H](NC=O)C(=O)N[C@@H](Cc2ccccc2)C(=O)N[C@H](C=O)CCCCN)cc1` [Compound 4, N-α-Formyl-N-ε-(p-tosyl)-D-lysyl-L-phenylalanyl-L-lysinal hydrochloride] (For-[dK](Tos)-Phe-Lys-aldehyde) were, in that order, less than 3.00, 5.11, 6.00, 7.02 and 6.62.

(Values after patent US4883863A, “Tripeptide derivatives and antiplasmin agents containing the same” (Nitto Boseki Co., Ltd., priority 1987, dated 1989).)
